Paper PMC7176092, “Development of the first in vivo GPR17 ligand through an iterative drug discovery pipeline: A novel disease-modifying strategy for multiple sclerosis” (PLoS ONE, 2020)
Several values for one entry are separate records, joined by “and”; a condition that tells them apart may be missing. Equal values may be shown once. Read-outs that look alike come from different tables or passages of the source.

What was measured:
CXCR4 = CXCR4 (Homo sapiens, UniProt P61073); assay: Cellular functional assay CXCR4
OPC-DRG co-cultures = assay: In vitro myelination assay; assay type: cell-based, rat OPCs, mouse DRG; conditions: 10 nM; CTRL 100%; mean ± S.E.M.
Procedure: OPC-DRG co-cultures were prepared according to a previously described protocol.
DRG explants from E14.5 mice were directly put in culture after being plucked off from embryo spinal cords. Then, they were grown in Neurobasal medium (Life Technologies) in presence of 100 ng/ml nerve growth factor (NGF, Sigma-Aldrich), and in presence of 10 μM fluorodeoxyuridine (FUDR, Sigma-Aldrich) in order to remove all non-neuronal cells.
Purified primary rat OPCs were obtained from mixed glial cultures by orbital shaking for 3 hours. […]
At day 15, OPC/DRG co-cultures treated with either the selected compounds or the vehicle were fixed and treated with rat anti-MBP (Millipore), mouse anti-SMI 31 and mouse anti-SMI 32 (Cell Signaling), followed by the secondary goat anti-rat/-mouse antibody, conjugated to Alexa Fluor 555 or Alexa Fluor 488 (Life Technologies). The quantification of myelin segments was performed following a previously described protocol with ZEISS LSM Image Browser by acquiring 6 random fields of 4–5 coverslips for each experimental condition. […] The amount of myelin per axon (myelination index) was calculated as the ratio between the white pixels area and the green pixels area. […]

[1] = In vivo mouse DMPK study, single 1 mg/kg subcutaneous dose
Procedure: In vivo DMPK studies were performed as an external service by Aptuit (Verona, Italy) according to standard procedures.
Two compounds were tested in a single dose pharmacokinetic (PK) study in mouse, in which a 1 mg/kg single dose solution (15% Ethanol, 85% PEG400) was administered by subcutaneous injection to naïve CD1 male mice from accredited supplier (n = 3), weighed prior to dosing. Blood samples were collected for 8 time-points (0.25, 0.50, 1, 2, 4, 6, 8, 24 hours).
Plasma samples were prepared and diluted according standard in-house procedures and stored at approximately -20°C, pending analysis. Briefly, blood samples were collected into tubes containing anticoagulant (K3EDTA), stored on ice and centrifuged to prepare plasma within 2 hours of collection. Plasma samples were diluted in Hepes Buffer and deproteinised using CH3CN containing rolipram as internal reference compound for positive ion mode, according standard procedure (20 ng/ml). After vortexing and centrifugation (3000 rpm per 10 min), sample supernatants were transferred in 96 well plate and diluted with water for analysis.
Blood concentrations of the tested compounds and their metabolites were detected through Liquid Chromatography-tandem Mass Spectrometry (QTRAP® 4000 LC-MS/MS System, Sciex). The results for each test compound in plasma were subjected to non-compartmental PK analysis using WinNonlin Phoenix v.6.3 for generation of appropriate PK parameters, reported along with graphical representation of the mean plasma concentration profiles over time.
At 24 hours, animals were sacrificed, and brains were collected and processed for measuring compound concentrations through mass spectrometry.

40 human receptors = assay: Selectivity profile on class-A GPCRs (Eurofins Cerep); conditions: 0.1 μM; binding and cellular assays
From the text: A subset of GPCRs with a relevant role in demyelination/remyelination was also included in this analysis.

CCR4 = target: T1, CCR4 (Homo sapiens, UniProt P51679); assay: Cellular functional assay CCR4
T1 sequence (P51679 1-360): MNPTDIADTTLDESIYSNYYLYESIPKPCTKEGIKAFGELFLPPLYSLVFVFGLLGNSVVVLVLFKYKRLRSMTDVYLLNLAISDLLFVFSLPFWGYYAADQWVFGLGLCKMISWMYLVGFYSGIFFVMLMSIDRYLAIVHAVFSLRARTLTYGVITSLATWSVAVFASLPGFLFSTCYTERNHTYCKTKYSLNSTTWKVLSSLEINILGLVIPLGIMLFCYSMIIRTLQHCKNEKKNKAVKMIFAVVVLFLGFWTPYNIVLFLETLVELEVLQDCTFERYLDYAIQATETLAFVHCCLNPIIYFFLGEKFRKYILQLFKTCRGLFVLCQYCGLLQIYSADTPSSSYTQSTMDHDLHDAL

[2] = antagonist effect, 100 nM, single replicates 1st and 2nd, 0.1 µM
[3] = read-out: % Inhibition of control agonist response
[4] = read-out: Agonist Response (% of Control), Mean, antagonist effect, 100 nM, mean of 2
[5] = mouse, sc, plasma, 1 mg/kg s.c. single dose, CD1 male mice

Sequence of CXCR4 (P61073 whole entry): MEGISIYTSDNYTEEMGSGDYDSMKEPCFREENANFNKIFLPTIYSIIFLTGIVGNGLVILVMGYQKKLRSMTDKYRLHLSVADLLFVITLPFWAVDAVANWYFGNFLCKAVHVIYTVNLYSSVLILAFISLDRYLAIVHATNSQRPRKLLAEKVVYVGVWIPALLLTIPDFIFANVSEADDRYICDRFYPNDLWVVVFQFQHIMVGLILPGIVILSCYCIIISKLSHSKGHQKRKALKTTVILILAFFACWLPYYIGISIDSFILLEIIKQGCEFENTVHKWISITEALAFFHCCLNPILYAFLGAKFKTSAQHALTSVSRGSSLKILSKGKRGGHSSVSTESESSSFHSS

Agonist Response (% of Control) (CXCR4; [2]): 70.8% | inhibition at 0.1 µM (CXCR4; [3]): 4.4% | activity at 0.1 µM (CXCR4; [4]): 78.2% | activity at 0.1 µM (CXCR4; read-out: Agonist Response (% of Control), antagonist effect, 100 nM, single replicates 1st and 2nd): 85.6% | Plasma concentration, individual mice ([1]; 0.50 h, 1 mg/kg s.c., 1 mg/kg): 71.7 ng/mL and 98.3 ng/mL and 30.8 ng/mL | Plasma concentration, individual mice ([1]; 1.00 h, 1 mg/kg s.c., 1 mg/kg): 14.3 ng/mL and 38.5 ng/mL and 76.3 ng/mL | Plasma concentration, individual mice ([1]; 2.00 h, 1 mg/kg s.c., 1 mg/kg): 5.6 ng/mL and 10.3 ng/mL and 29.8 ng/mL | Plasma concentration, individual mice ([1]; 4.00 h, 1 mg/kg s.c., 1 mg/kg): 2.6 ng/mL | concentration at 0.5 h ([1]; male, CD1, mouse, plasma, sc, 1 mg/kg, 0.50 h, 1 mg/kg s.c., n=3 mice, read-out: Plasma concentration, Mean): 66.9 ng/mL | concentration at 1 h ([1]; male, CD1, mouse, plasma, sc, 1 mg/kg, 1.00 h, 1 mg/kg s.c., n=3 mice, read-out: Plasma concentration, Mean): 43 ng/mL | concentration at 2 h ([1]; male, CD1, mouse, plasma, sc, 1 mg/kg, 2.00 h, 1 mg/kg s.c., n=3 mice): 15.2 ng/mL | concentration at 4 h ([1]; male, CD1, mouse, plasma, sc, 1 mg/kg, 4.00 h, 1 mg/kg s.c., read-out: Plasma concentration, Mean): 2.8 ng/mL | concentration at 4 h ([1]; male, CD1, mouse, plasma, sc, 1 mg/kg, 4.00 h, 1 mg/kg s.c., read-out: Plasma concentration, individual mice): 2.9 ng/mL | concentration at 4 h ([1]; male, CD1, mouse, plasma, sc, 1 mg/kg, plasma, 1 mg/kg s.c. single dose, CD1 male mice, read-out: Clast): 4.81 ng/mL | AUC(0-t) [1, 5]: 85.8 ng·h/mL | Cmax [1, 5]: 72.3 ng/mL | Tmax [1, 5]: 30 min | half-life [1, 5]: 65.4 min | Metabolites found in vivo ([1]; plasma after s.c. administration in mice): no detectable metabolites | Tlast ([1]; plasma, 1 mg/kg s.c. single dose, CD1 male mice): 4.00 h | Pharmacological activity on the tested GPCRs (40 human receptors): no significant pharmacological activity | Agonist Response (% of Control) (CCR4; [2]): 60.7% and 88.2% | inhibition at 0.1 µM (CCR4; [3]): -0.1% | activity at 0.1 µM (CCR4; [4]): 74.4%
Compound: Cc1ccc(-c2nnc(SCC(=O)Nc3nccs3)[nH]2)cc1 [Compound 9]
Myelination Index (OPC-DRG co-cultures): 155.0 ± 12.08%
